# From US20250186448A1 (Mezzion Pharma Co., Ltd., priority 2021, published 2025)
# Several values for one entry are separate records, joined by “and”; a condition that tells them apart may be missing. Equal entries are not always repeated. Entries after “also recorded” stand apart in the source; their conditions may differ.
# Tested on: adolescents with Fontan physiology
# Assay: FUEL trial: resting data and cardiopulmonary exercise test (CPET), cycle ergometer ramp protocol
# Type: in vivo, human
# Conditions: for Anaerobic threshold VE/VCO2 / Anaerobic threshold oxygen consumption / Anaerobic threshold work / Peak exercise heart rate / Peak exercise minute ventilation / Peak exercise oxygen consumption / Peak exercise oxygen saturation / Peak exercise respiratory rate / Peak exercise work rate / Resting diastolic blood pressure / Resting heart rate / Resting oxygen saturation / Resting systolic blood pressure: mean ± SD; for Resting oxygen saturation, change: p 0.002 vs placebo; for Resting diastolic blood pressure, change: p 0.003 vs placebo; for Anaerobic threshold VE/VCO2, change: p 0.011 vs placebo
# Excerpt: Exercise testing can include assessment of VO2 values during maximal effort or at the ventilator anaerobic threshold (VAT). VO2 max, or maximal oxygen consumption, refers to the maximum amount of oxygen that an individual can utilize during intense exercise. This measurement is generally considered a reliable indicator of cardiovascular fitness and aerobic endurance. The more oxygen a person can use during high level exercise, the more energy that person can produce. This test has been the standard for cardiorespiratory fitness because muscles need oxygen for prolonged (aerobic) exercise; blood carries oxygen to the muscles and the heart must pump adequate amounts of blood to meet the demands of aerobic exercise.
# (§1) VO2 is often measured by putting a mask on a subject, and measuring the volume and gas concentrations of inhaled and expired air. This measurement is often used in both clinical settings and research and is considered the most accurate. Testing commonly involves either exercising on a treadmill or riding a cycle ergometer at increasing intensity until exhaustion, and is designed to provide readings at a maximal effort of the subject and/or at the subject's anaerobic threshold.
# Exercise testing can include assessment of VO2 values during maximal effort or at ventilator anaerobic threshold (“VAT”). VO2 max (“peak VO2”), or maximal (“peak”) oxygen consumption, refers to the maximum amount of oxygen that an individual can utilize during intense exercise. This measurement is generally considered a reliable indicator of cardiovascular fitness and aerobic endurance. Theoretically, the more oxygen a person can use during exercise, the more energy that person can produce. This test is often used for cardiorespiratory fitness because muscles need oxygen for prolonged (aerobic) exercise; blood carries oxygen to the muscles and the heart must pump adequate amounts of blood to meet the demands of aerobic exercise. However, while peak VO2 may be useful as a surrogate for many cardiovascular disease states, it may not be as relevant an endpoint after the Fontan operation. In this unique physiology, central venous pressure, rather than right ventricular contraction (pumping), is the primary driver of transpulmonary blood flow and, therefore, cardiac output. Gewillig M and Goldberg D J. Failure of the fontan circulation. Heart Fail Clin. 10(1):105-116 (January 2014); Egbe A C, Connolly H M, Miranda W R, Ammash N M, Hagler D J, Veldtman G R and Borlaug B A. Hemodynamics of Fontan Failure: The Role of Pulmonary Vascular Disease. Circ Heart Fail. 10(12): e004515 (September 2017); Gewillig M, Brown S C, Eyskens B, Heying R, Ganame J, Budts W, La Gerche A and Gorenflo M. The Fontan circulation: who controls cardiac output?Interact Cardiovasc Thorac Surg. 10(3):428-433 (March 2010); and Goldberg D J, Avitabile C M, McBride M G and Paridon S M. Exercise capacity in the Fontan circulation. Cardiol Young. 23(6):824-830 (December 2013). As the demand for cardiac output increases with exertion, central venous pressure in the Fontan circulation must rise to meet that demand, but eventually reaches a critical ceiling beyond which it can rise no further. Navaratnam D, Fitzsimmons S, Grocott M, Rossiter H B, Emmanuel Y, Diller G P, Gordon-Walker T, Jack S, Sheron N, Pappachan J, Pratap J N, Vettukattil J J and Veldtman G. Exercise-Induced Systemic Venous Hypertension in the Fontan Circulation. Am J Cardiol. 117(10):1667-1671 (May 15, 2016).
# as §1, with “research and has been considered the” for “research and is considered the”, “anaerobic threshold. […]” for “anaerobic threshold.”
# [1] = 87.5 mg twice daily, Change baseline to 26-week
# [2] = 87.5 mg twice daily, Change baseline to 26-week, listed as udenafil
# [3] = 87.5 mg twice daily, baseline to 26-week
smiles,measurement,setting,value
"CCCOc1ccc(S(=O)(=O)NCCC2CCCN2C)cc1-c1nc2c(CCC)nn(C)c2c(=O)[nH]1 (stereo not drawn) [Udenafil, udenafil]","Multiple measures of exercise performance at the ventilatory anaerobic threshold, udenafil vs placebo",87.5 mg twice daily,statistically significant improvements
same,Anaerobic threshold VE/VCO2,"87.5 mg twice daily, 26-week",33.6 ± 4.8
same,Anaerobic threshold oxygen consumption,"87.5 mg twice daily, 26-week",1059 ± 292 mL/min
same,Anaerobic threshold work,"87.5 mg twice daily, 26-week",69.2 ± 26 W
same,Peak exercise heart rate,"87.5 mg twice daily, 26-week",165 ± 20 bpm
same,Peak exercise minute ventilation,"87.5 mg twice daily, 26-week",73 ± 22 L/min
same,Peak exercise oxygen consumption,"87.5 mg twice daily, 26-week",1606 ± 452 mL/min
same,Peak exercise oxygen saturation,"87.5 mg twice daily, 26-week",89.6 ± 4.9%
same,Peak exercise respiratory rate,"87.5 mg twice daily, 26-week",50 ± 12 breaths/min
same,Peak exercise work rate,"87.5 mg twice daily, 26-week",124 ± 32 W
same,Resting diastolic blood pressure,"87.5 mg twice daily, 26-week",65.3 ± 9.9 mmHg
same,Resting heart rate,"87.5 mg twice daily, 26-week",86.6 ± 15.4 bpm
same,Resting oxygen saturation,"87.5 mg twice daily, 26-week",93.3 ± 3.5%
same,Resting systolic blood pressure,"87.5 mg twice daily, 26-week",110.5 ± 12.0 mmHg
same,Anaerobic threshold VE/VCO2,"87.5 mg twice daily, Baseline",34.3 ± 4.9
same,Anaerobic threshold oxygen consumption,"87.5 mg twice daily, Baseline",1039 ± 301 mL/min
same,Anaerobic threshold work,"87.5 mg twice daily, Baseline",66.2 ± 26 W
same,Peak exercise heart rate,"87.5 mg twice daily, Baseline",165 ± 20 bpm
same,Peak exercise minute ventilation,"87.5 mg twice daily, Baseline",71 ± 21 L/min
same,Peak exercise oxygen consumption,"87.5 mg twice daily, Baseline",1562 ± 437 mL/min
same,Peak exercise oxygen saturation,"87.5 mg twice daily, Baseline",89.2 ± 5.3%
same,Peak exercise respiratory rate,"87.5 mg twice daily, Baseline",51 ± 11 breaths/min
same,Peak exercise work rate,"87.5 mg twice daily, Baseline",120 ± 32 W
same,Resting diastolic blood pressure,"87.5 mg twice daily, Baseline",68.4 ± 9.5 mmHg
same,Resting heart rate,"87.5 mg twice daily, Baseline",87.5 ± 15.3 bpm
same,Resting oxygen saturation,"87.5 mg twice daily, Baseline",92.8 ± 3.9%
same,Resting systolic blood pressure,"87.5 mg twice daily, Baseline",112.3 ± 12.1 mmHg
same,"Resting oxygen saturation, change",[1],0.5 ± 2.4%
same,"Resting oxygen saturation, change",[2],+0.5%
same,"Resting diastolic blood pressure, change",[1],−2.9 ± 9.7 mmHg
same,"Resting diastolic blood pressure, change",[2],−2.9 mmHg
same,"Anaerobic threshold VE/VCO2, change",[1],−0.76 ± 3.6^
same,"Anaerobic threshold VE/VCO2, change",[2],−0.8
same,"Anaerobic threshold oxygen consumption (VO2 at VAT), change","87.5 mg twice daily, Change baseline to 26-week, p 0.023 vs placebo",29.7 ± 177 mL/min
same,"Anaerobic threshold work (work rate at VAT), change","87.5 mg twice daily, Change baseline to 26-week, p 0.029 vs placebo",3.5 ± 15 W
same,"Peak exercise oxygen consumption (peak VO2, VO2 max), change","87.5 mg twice daily, Change baseline to 26-week, p 0.071 vs placebo",44 ± 245 mL/min
same,"Resting systolic blood pressure, change","87.5 mg twice daily, Change baseline to 26-week, p 0.18 vs placebo",−1.8 ± 12.2 mmHg
same,"Resting heart rate, change","87.5 mg twice daily, Change baseline to 26-week, p 0.78 vs placebo",−0.9 ± 12.7 bpm
same,"Peak exercise work rate, change","87.5 mg twice daily, Change baseline to 26-week, p 0.85 vs placebo",3.2 ± 14 W
same,"VE/VCO2 measured at VAT, decreased by, percent",[3],2.1%
same,"Work rate at VAT improved by, percent",[3],5.5% and 5.2%
same,"Change in resting heart rate, respiratory rate, or systolic blood pressure, udenafil vs placebo",baseline to 26-week,no difference
same,"Diastolic blood pressure in the udenafil group, in words",baseline to 26-week,small but statistically significant decrease
same,"Resting oxygen saturation in the udenafil group, in words",baseline to 26-week,small but statistically significant increase
same,"Oxygen consumption at peak exercise (peak VO2), difference udenafil vs placebo",p=0.071,did not reach statistical significance; also recorded: not associated with a statistically significant improvement
